# Assay results as given in patent publication US11931347B2, “Method of screening for agents for differentiating stem cells” (MINERVA BIOTECHNOLOGIES CORPORATION, priority 2015, dated 2024).
# Entries after “also recorded” stand apart in the source; their conditions may differ.
# Experiments:
# [1] = tested on: human primed state stem cells; assay: stem cell drug screening assay on primed state stem cells; format: cell-based; details: treated for 3 days, bFGF absent
# Protocol: The stem cell screening assay, was performed in both the presence and absence of the stem cell growth factors: NME7AB for growing naïve stem cells or FGF for growing primed stem cells. If the cognate growth factor was present, then the biological or small molecule would have to compete away the growth factor to get an effect. Therefore, we expected to see more of an effect when the growth factor, FGF for primed stem cells or NME7AB or NME1 dimers for naïve stem cells, was absent. The effect of the compounds on stem cells was visually determined and compounds were ranked 0-4, with 4 being the greatest effect and 0 being no observable effect. The major effect that was observed was a change from pluripotent stem cell morphology, which is a cobblestone pattern of small round cells with a large nucleus to cytoplasm ratio, to that of differentiating stem cells, which are elongated, large and flattened cells with a smaller nucleus to cytoplasm ratio. […] The compounds were added to a final concentration of 6 uM to either naïve state stem cells or primed state stem cells. In this particular case, the naïve state stem cells were maintained in a naïve state by culturing in a media containing NME7AB or NME1 dimers. However, other methods such as 2i and 5i (Silva et al., 2008, Nichols and Smith, 2009, Theunissen et al., 2014)] can be used to maintain stem cells in a more naïve state. In this case primed state stem cells were cultured in bFGF over a layer of MEFs, although it is known that any bFGF containing media will maintain stem cells in the primed state.
# Stem cells whether embryonic or induced pluripotent stem (iPS) cells were cultured in a minimal, serum-free media that contained human recombinant bFGF at a concentration of 8 ng/mL. The stem cells were plated over a layer of inactivated mouse embryonic fibroblasts, aka MEFs, which secrete additional uncharacterized growth factors and cytokines.
# Human naïve state and primed stem cells were cultured in parallel for at least 5 passages to guarantee normal differentiation-free growth. The stem cells were plated in 12-well cell culture plates with 50,000 cells per well. Cells were cultured in their respective media, either bFGF media or NME7AB media for 24 hours. Media was then removed and replaced with media devoid of bFGF or NME7AB, when indicated. Agents being tested for their ability to induce differentiation of naïve stem cells were added to the media at the concentrations indicated. After 72 hours, photographs were taken see FIGS. 1-10.
# Human naïve state and primed stem cells were cultured in parallel for at least 5 passages to guarantee normal differentiation-free growth. The stem cells were plated in 12-well cell culture plates with 50,000 cells per well. Cells were cultured in their respective media, either bFGF media or NME7AB media for 24 hours. Media was then removed and replaced with media devoid of bFGF or NME7AB. […] Media was changed after 48 hours and replaced with fresh media containing the BRD4 inhibitors. After 4 days the experiment was stopped. Photographs were taken and cell pellets collected for further analysis, see FIGS. 11-16.
# [2] = tested on: E-cadherin, fibronectin, vimentin and NF1 expression in naïve stem cells; assay: RT-PCR of differentiation markers in treated naïve stem cells; format: cell-based, human
# Protocol: FIG. 161 is a graph of RT-PCR measurement of naïve stem cells that have been treated with compounds of the invention. The genes whose expression is measured are E-cadherin, which goes […] as cells undergo epithelial to mesenchymal transition, fibronectin and vimentin, which both increase as stem cells initiate differentiation and NF1, which is one of the first genes to increase when stem cells begin to differentiate down the neural lineage. […] E-cadherin is the opposite; it […] as cells become cancerous. […] Expression of metastatic marker E-cadherin was reduced and expression of differentiation markers fibronectin, vimentin and NF1 were increased (FIG. 162-FIG. 163). Novel compounds of the invention are highly specific. […] Although we discovered that NME1 dimers, NME7AB and NME7-X1 are all activating ligands of the MUC1* growth factor receptor and they bind to its extracellular domain, we have developed ample evidence that both NME7AB and NME7-X1 have other binding partners and can exert oncogenic effects, independent of MUC1*.
# [3] = tested on: human naïve state stem cells; assay: stem cell drug screening assay on naïve state stem cells; format: cell-based; details: 500 nM or 1 uM, cells from NME7AB or NME1 dimers, growth factor absent
# [4] = tested on: OV-90 MUC1* negative ovarian cancer cells; assay: cancer cell proliferation assay (Calcein); format: cell-based; details: 96 hours (FIG. 114)
smiles,measurement,setting,value
"Cc1sc2c(c1C)C(c1ccc(Cl)cc1)=N[C@@H](CC(=O)OC(C)(C)C)c1nnc(C)n1-2 [JQ1+, JQ1]",effect on primed stem cell colony size and morphology,[1]; listed as JQ1(+),modest effect on the size of primed stem cell colonies; also recorded: some abnormal morphology
same,induction of differentiation of primed state stem cells,[1]; listed as JQ1(+),None of these agents appeared to induce differentiation
same,induction of differentiation of primed state stem cells,[1]; listed as JQI,not primed stem cell growth
same,up-regulation of markers of differentiation in naïve stem cells (RT-PCR),[2],did not cause up-regulation of markers of differentiation
same,effect on naïve stem cell differentiation and growth,[3],dramatically induced differentiation
same,effect on naïve stem cell differentiation and growth,[3]; listed as JQI,inhibitory effect
same,effect on growth of OV-90 cells,[4],neither the compounds of the invention nor JQ1 or SU11274 had any apparent effect
